Results taken from patent publication US20100137449A1, “SUBSTITUTED 1,3-CYCLOPENTADIONE MULTI-TARGET PROTEIN KINASE MODULATORS OF CANCER, ANGIOGENESIS AND THE INFLAMMATORY PATHWAYS ASSOCIATED THEREWITH” (METAPROTEOMICS, LLC, priority 2007, published 2010).

Legend:
Assay in all cases: KinaseProfiler Assay
[1] = target: T1, PDK1(h) (Homo sapiens, UniProt O15530)
T1 sequence (O15530 1-556): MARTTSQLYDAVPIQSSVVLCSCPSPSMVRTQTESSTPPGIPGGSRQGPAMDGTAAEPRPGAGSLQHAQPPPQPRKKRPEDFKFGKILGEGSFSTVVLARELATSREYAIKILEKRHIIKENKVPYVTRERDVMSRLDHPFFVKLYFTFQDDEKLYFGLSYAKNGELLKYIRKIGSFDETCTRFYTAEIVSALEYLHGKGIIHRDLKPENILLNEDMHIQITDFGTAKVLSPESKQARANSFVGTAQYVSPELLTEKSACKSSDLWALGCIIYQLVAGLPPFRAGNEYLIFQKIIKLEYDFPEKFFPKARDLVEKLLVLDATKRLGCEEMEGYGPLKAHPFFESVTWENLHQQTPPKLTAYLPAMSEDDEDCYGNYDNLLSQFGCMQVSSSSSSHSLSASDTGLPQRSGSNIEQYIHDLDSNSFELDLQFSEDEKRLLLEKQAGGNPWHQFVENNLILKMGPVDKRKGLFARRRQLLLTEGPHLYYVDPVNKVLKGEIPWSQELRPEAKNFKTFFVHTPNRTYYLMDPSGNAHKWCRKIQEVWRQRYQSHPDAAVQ

[2] = target: Pim-2(h) (Homo sapiens, UniProt Q9P1W9)
Chain of Pim-2(h) (Q9P1W9 whole entry): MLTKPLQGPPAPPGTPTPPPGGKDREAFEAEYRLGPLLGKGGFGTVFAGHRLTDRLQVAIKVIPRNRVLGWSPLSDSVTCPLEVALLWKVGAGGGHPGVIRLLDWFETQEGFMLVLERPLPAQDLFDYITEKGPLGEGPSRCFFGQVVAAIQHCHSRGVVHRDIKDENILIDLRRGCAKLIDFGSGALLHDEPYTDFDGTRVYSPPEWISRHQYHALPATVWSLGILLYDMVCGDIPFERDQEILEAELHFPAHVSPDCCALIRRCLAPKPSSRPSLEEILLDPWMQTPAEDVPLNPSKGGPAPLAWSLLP

[3] = target: T2, EphA1(h) (Homo sapiens, UniProt P21709)
T2 sequence (P21709 26-976): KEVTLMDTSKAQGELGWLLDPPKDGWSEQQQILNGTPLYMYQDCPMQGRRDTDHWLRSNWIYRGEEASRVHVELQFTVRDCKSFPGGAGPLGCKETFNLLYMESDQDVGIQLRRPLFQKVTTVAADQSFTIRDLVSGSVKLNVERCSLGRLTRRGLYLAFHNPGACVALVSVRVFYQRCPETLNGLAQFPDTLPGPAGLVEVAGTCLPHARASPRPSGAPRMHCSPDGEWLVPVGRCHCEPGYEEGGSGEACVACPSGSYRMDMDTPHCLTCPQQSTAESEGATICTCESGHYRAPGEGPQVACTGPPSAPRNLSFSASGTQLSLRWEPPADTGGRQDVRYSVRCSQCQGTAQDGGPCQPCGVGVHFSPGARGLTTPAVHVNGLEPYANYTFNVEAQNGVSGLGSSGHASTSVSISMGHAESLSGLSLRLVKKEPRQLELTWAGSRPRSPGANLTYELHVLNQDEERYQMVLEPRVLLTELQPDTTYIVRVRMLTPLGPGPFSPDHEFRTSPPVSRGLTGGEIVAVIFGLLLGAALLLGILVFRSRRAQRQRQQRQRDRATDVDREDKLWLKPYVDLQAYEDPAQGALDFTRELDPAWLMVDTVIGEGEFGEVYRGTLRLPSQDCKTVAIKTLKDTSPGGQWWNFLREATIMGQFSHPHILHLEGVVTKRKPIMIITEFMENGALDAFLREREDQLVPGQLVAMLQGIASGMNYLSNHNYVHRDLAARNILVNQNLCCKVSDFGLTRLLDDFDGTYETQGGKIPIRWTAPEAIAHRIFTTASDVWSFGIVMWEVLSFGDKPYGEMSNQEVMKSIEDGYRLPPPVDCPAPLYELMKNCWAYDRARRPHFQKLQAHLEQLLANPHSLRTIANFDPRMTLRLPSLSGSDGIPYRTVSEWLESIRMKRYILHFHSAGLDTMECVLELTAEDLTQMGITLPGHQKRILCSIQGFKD

[4] = target: CaMKIIβ(h) (Homo sapiens, UniProt Q13554)
Chain of CaMKIIβ(h) (Q13554 whole entry): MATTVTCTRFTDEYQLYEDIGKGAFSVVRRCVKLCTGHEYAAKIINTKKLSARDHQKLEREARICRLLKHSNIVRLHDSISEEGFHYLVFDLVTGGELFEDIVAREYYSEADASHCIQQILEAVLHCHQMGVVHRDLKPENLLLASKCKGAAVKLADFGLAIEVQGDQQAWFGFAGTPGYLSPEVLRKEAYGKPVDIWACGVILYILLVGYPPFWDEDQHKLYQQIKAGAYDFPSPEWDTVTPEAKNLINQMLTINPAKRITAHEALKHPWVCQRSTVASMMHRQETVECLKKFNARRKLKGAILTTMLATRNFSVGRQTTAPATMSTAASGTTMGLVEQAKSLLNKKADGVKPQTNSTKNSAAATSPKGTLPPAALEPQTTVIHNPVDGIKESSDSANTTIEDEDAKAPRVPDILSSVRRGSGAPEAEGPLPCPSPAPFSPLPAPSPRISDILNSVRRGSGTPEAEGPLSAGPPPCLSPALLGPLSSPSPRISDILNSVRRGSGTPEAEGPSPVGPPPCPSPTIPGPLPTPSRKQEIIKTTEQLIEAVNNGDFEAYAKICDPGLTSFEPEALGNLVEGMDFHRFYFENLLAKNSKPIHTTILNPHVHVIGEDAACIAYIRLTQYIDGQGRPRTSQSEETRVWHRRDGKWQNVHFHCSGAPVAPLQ

Q: Which results are given for CC(C)CCC(=O)[C@]1(O)C(O)=C(C(=O)C(C)C)C(=O)[C@H]1CCC(C)C [TH2, tetrahydroiso-cohumulone]?
A: kinase inhibition ([1]; 1 μg/ml): 122% of control; kinase inhibition ([1]; 5 μg/ml): 123% of control; kinase inhibition ([1]; 25 μg/ml): 102% of control; kinase inhibition ([1]; 50 μg/ml): 87% of control; kinase inhibition ([1]; 100 μg/ml): 69% of control; kinase inhibition ([2]; 1 μg/ml): 103% of control; kinase inhibition ([2]; 5 μg/ml): 111% of control; kinase inhibition ([2]; 25 μg/ml): 77% of control; kinase inhibition ([2]; 50 μg/ml): 73% of control; kinase inhibition ([2]; 100 μg/ml): 67% of control; kinase inhibition ([3]; 1 μg/ml): 117% of control; kinase inhibition ([3]; 5 μg/ml): 116% of control; kinase inhibition ([3]; 25 μg/ml): 108% of control; kinase inhibition ([3]; 50 μg/ml): 99% of control; kinase inhibition ([3]; 100 μg/ml): 85% of control; kinase inhibition ([4]; 1 μg/ml): 103% of control; kinase inhibition ([4]; 5 μg/ml): 106% of control; kinase inhibition ([4]; 25 μg/ml): 95% of control; kinase inhibition ([4]; 50 μg/ml): 83% of control; kinase inhibition ([4]; 100 μg/ml): 66% of control
